Results published in patent US20060257340A1, “Formulation for skin-lightening agents” (priority 2003, published 2006).
“Also recorded” adds a separate entry of the source. Marks after values point to notes of the source that are not given here.

What was measured:
[1] = test system: skin pigmentation of Yucatan swine; experiment: Depigmenting effect of topical application on dark-skinned Yucatan swine (pigment grade); assay type: in vivo; details: for Mean pigment Grade +/− SD (Week 12): topical 20 μl twice daily, five days per week; for Mean pigment Grade +/− SD (Week 12) / mean pigment grade +/− SD: scale 0 to 4, 4 = normal skin color; for mean pigment grade +/− SD: collated experiments; for effect of HG/PG/DMI/EtOH vehicle on depigmenting action: HG/PG/DMI/EtOH with or without 2% (wt/wt) IPM, compared with PG/EtOH
Protocol: The following nonlimiting examples further illustrate certain preferred embodiments of the present invention. The formulations were tested experimentally on Yucatan swine with dark skin. The Yucatan pigskin shares many physiologic and morphologic characteristics with human skin. For example, as described in U.S. Pat. No. 5,470,567, the thickness and general morphology of epidermis and dermis, tritiated thymidine labeling pattern and index of epidermal cells, epidermal cell turnover time, as well as size, orientation, and distribution of vessels in skin are similar to that in humans. Varying concentrations of 4-cyclopentylresorcinol and 4-cyclohexylresorcinol were administered to the back of Yucatan swine using various carriers. Yucatan swine with dark skin were used in this study. Swine were obtained from Charles River Laboratories, Windham, Me., and Sinclair Laboratories, MO. Seven sites measuring approximately 3 cm×3 cm were marked on each side of the animal's spine, between the shoulder blade and hipbone. The sites were far enough apart so that there was no cross-over. Multiple treatments were performed on the back of each animal. Each animal in the experiment received the same treatments. Each spot was topically treated with 20 μl of test solution applied twice daily, five days per week. This amounts to the same dose of active agent. Solutions were administered by pipetting the exact volume to the designated area with a micropipette and then spreading the solution. Each spot or test site on the animal's skin was graded 3 times a week on a scale of 0 to 4 for pigment change, erythema and scaling. Treatments were continued until pigmentation was reduced to a grade 1 level (marked uniform decrease in pigmentation) or for up to 12 weeks. Results were analyzed using different types of statistical analysis, ANOVA, Kruskal-Wallis test and Dunnett's multiple comparison, as indicated below. ANOVA is a statistical test that assumes sampled data is from populations that follow a Gaussian bell-shaped distribution and which works well, especially with large numbers, even if the distribution is only approximately Gaussian. The Kruskal-Wallis test is a nonparametric test that compares three or more unpaired groups. The Dunnett's test is a procedure for comparing each experimental mean with the control mean. For each graph presented, it is indicated which statistical tests were performed.

[2] = test system: Yucatan swine skin; details: in vivo
Protocol: Seven sites measuring approximately 3 cm×3 cm were marked on each side of the animal's spine, between the shoulder blade and hipbone. The sites were far enough apart so that there was no cross-over. Multiple treatments were performed on the back of each animal. Each animal in the experiment received the same treatments. Each spot was topically treated with 20 μl of test solution applied twice daily, five days per week. This amounts to the same dose of active agent. Solutions were administered by pipetting the exact volume to the designated area with a micropipette and then spreading the solution. Each spot or test site on the animal's skin was graded 3 times a week on a scale of 0 to 4 for pigment change, erythema and scaling. Treatments were continued until pigmentation was reduced to a grade 1 level (marked uniform decrease in pigmentation) or for up to 12 weeks.

[3] = test system: skin pigmentation of Yucatan swine; experiment: Reversibility of depigmentation (repigmentation) after treatment discontinuation; assay type: in vivo; details: 6 weeks after discontinuation following 12 weeks of topical treatment; 1% 4-cyclopentylresorcinol, 2% 4-cyclohexylresorcinol in HG/DMI/PG/EtOH (5/15/40/40)
Protocol: Each spot was topically treated with 20 μl of test solution applied twice daily, five days per week. This amounts to the same dose of active agent. Solutions were administered by pipetting the exact volume to the designated area with a micropipette and then spreading the solution. Each spot or test site on the animal's skin was graded 3 times a week on a scale of 0 to 4 for pigment change, erythema and scaling. Treatments were continued until pigmentation was reduced to a grade 1 level (marked uniform decrease in pigmentation) or for up to 12 weeks. Pigmentation was monitored for 6 weeks after discontinuation of treatment following 12 weeks of topical treatment with 1% 4-cyclopentylresorcinol and 2% 4-cyclohexylresorcinol in HG/DMI/PG/EtOH (5/15/40/40).

[4] = 2% in HG/PG/DMI/EtOH (5/40/15/40)

| SMILES | Mean pigment Grade +/− SD (Week 12) ([1]; 2% in DMI/HG/PG/EtOH, 0 = complete depigmentation) | mean pigment grade +/− SD [1, 4] | mean pigment grade +/− SD ([1]; 2% in HG/PG/DMI/EtOH + 2% IPM) | mean pigment grade +/− SD ([1]; 2% in PG/EtOH (3/7)) | mean pigment grade +/− SD ([1]; 5% in PG/EtOH (5/5)) | effect of HG/PG/DMI/EtOH vehicle on depigmenting action [1] | irritation [2] | repigmentation after discontinuation of treatment [3] | pigmentation versus the same agent in PG/EtOH vehicle ([1]; 1% and 2% in HG/PG/DMI/EtOH compared with PG/EtOH) | pigmentation versus vehicle control ([1]; 1% and 2% in HG/PG/DMI/EtOH, Kruskal-Wallis test and Dunnett's multiple comparison) | Mean pigment Grade +/− SD (Week 12) ([1]; 1% in DMI/HG/PG/EtOH, 0 = complete depigmentation) | mean pigment grade +/− SD ([1]; 1% in HG/PG/DMI/EtOH (5/40/15/40)) | mean pigment grade +/− SD ([1]; 1% in HG/PG/DMI/EtOH + 2% IPM) | mean pigment grade +/− SD ([1]; 1% in PG/EtOH (3/7), 0 = complete depigmentation) |
| --- | --- | --- | --- | --- | --- | --- | --- | --- | --- | --- | --- | --- | --- | --- |
| Oc1ccc(C2CCCCC2)c(O)c1 [4-cyclohexylresorcinol] | 3 +/− 0* | 2.8 +/− 0.6* | 2.4 +/− 1.1* | 3.0 +/− 0.8 | 3.0 +/− 0* | improved the depigmenting action; also recorded: improved the depigmentation efficacy | No irritation was apparent | signs of gradual repigmentation |  |  |  |  |  |  |
| Oc1ccc(C2CCCC2)c(O)c1 [4-cyclopentylresorcinol] |  | 2.0 +/− 0.7* | 1.4 +/− 0.9* | 2.4 +/− 0.9* |  | improved the depigmentation efficacy | No irritation was apparent | signs of gradual repigmentation | not statistically different | statistically different from vehicle | 2.8 +/− 0.4* | 2.8 +/−0.6* | 2.0 +/− 1.2* | 3.3 +/− 0.7 |
